Assay results published in patent US10912814B2, “Combination formulation of three antiviral compounds” (priority 2016, dated 2021).

Legend:
BCS classification = format: physicochemical
[1] = Tablet dissolution in 50 mM sodium acetate buffer pH 5.0 with 2.0% w/v Polysorbate 80 and 0.001% w/v BHT, 75 rpm, 900 mL, 37° C., USP Type II; format: physicochemical
Method: FIGS. 10-12 depict additional dissolution profiles for the sofosbuvir/velpatasvir SSD/voxilaprevir SSD tablets having the formulation described in Table 13 and which were used in phase 1, 2, and 3 clinical studies, where the dissolution testing was conducted at pH 5.0 acetate buffer containing 2.0% w/v polysorbate 80. Four batches of the sofosbuvir/velpatasvir SSD/voxilaprevir SSD tablets were tested, with Batch A manufactured at 100 kg and Batches B, C and D manufactured at 145 kg. All other aspects of the formulation and manufacturing process were otherwise equivalent. The four batches were packed in the same commercial configuration: 28 count, 100 mL HPDE bottle with 1 g silica gel desiccant canister and a polyester fiber coil. […] Moreover, for Batch A, the amount dissolved at 30 min remained between 98 and 100% for sofosbuvir, between 90 and 92% for velpatasvir SSD, and between 89 and 93% for voxilaprevir SSD. […] For Batch D, the amount dissolved at 30 min remained at 100% for sofosbuvir, between 90 and 91% for velpatasvir SSD, and between 89 and 91% for voxilaprevir SSD. Release of velpatasvir SSD and voxilaprevir SSD from the sofosbuvir/velpatasvir SSD/voxilaprevir SSD tablets associated with all four Batches was complete after 60 minutes.

[2] = as above; format: physicochemical; remark: listed apart in the source
[3] = Photostability (light exposure, ICH Q1B); format: physicochemical; settings: for Total Imp./Deg. Products (%): tablets
Method: In some embodiments, and the Examples presented herein, the tablet formulation includes sofosbuvir having Form 6 and, optionally, a trace amount of Form 7.
Tablet cores and film-coated tablets were evaluated per ICH Q1B guidelines with a total of illumination of more than 1.2 million-lux hours and a total irradiance of more than 200 W·hr/m^2.

HCV RNA = assay: Emax PK/PD modeling of sofosbuvir exposure vs HCV RNA change from baseline; format: in vivo; settings: 400 mg sofosbuvir dose
Method: The sofosbuvir dose selected for the tablet formulation is 400 mg once daily. Support for the 400 mg sofosbuvir dose can be derived from Emax PK/PD modeling with early virological and human exposure data which also supports the selection of a 400 mg sofosbuvir dose over others tested.
The mean sofosbuvir major metabolite AUCtau for the 400 mg sofosbuvir dose is associated with approximately 77% of the maximal HCV RNA change from baseline achievable as determined by this model, a value which is on the cusp of the plateau of the exposure-response sigmoidal curve. In a sigmoidal Emax model, there is a relatively linear exposure-response relationship in the 20 to 80% maximal effect range. Therefore, given that sofosbuvir exposure with 200 mg tablets appears dose-proportional with single doses up to 1200 mg, doses below 400 mg are expected to yield considerable reductions in the magnitude of HCV RNA change from baseline.

## CC(C)OC(=O)C(C)N[P@](=O)(OC[C@H]1O[C@@H](n2ccc(=O)[nH]c2=O)[C@](C)(F)[C@@H]1O)Oc1ccccc1 (stereo in doubt) [Sofosbuvir, (S)-isopropyl 2-(((S)-(((2R,3R,4R,5R)-5-(2,4-dioxo-3,4-dihydropyrimidin-1(2H)-yl)-4-fluoro-3-hydroxy-4-methyltetrahydrofuran-2-yl)methoxy)(phenoxy)phosphoryl)amino)propanoate]
BCS classification
  aqueous solubility, pH dependence: high and pH-independent aqueous solubility
[1]; Batch C tablets, closed 1 g desiccant, 30° C./75% RH, 6 months
  Dissolved at 30 min (%): 99%
[1]; Batch C tablets, closed 1 g desiccant, 40° C./75% RH, 1 month
  Dissolved at 30 min (%): 100%
[1]; Batch C tablets, closed 1 g desiccant, Initial, time 0
  Dissolved at 30 min (%): 99%
[1]; tablets Batch A, 30° C./75% RH, 6 mo
  Dissolved at 30 min (%): 100%
[1]; tablets Batch A, 40° C./75% RH, 3 mo
  Dissolved at 30 min (%): 99%
[1]; tablets Batch A, Initial, 0 mo
  Dissolved at 30 min (%): 98%
[1]; tablets Batch B, 40° C./75% RH, 6 mo
  Dissolved at 30 min (%): 98%
[1]; tablets Batch D
  amount dissolved at 30 min: 100%
[1]; tablets Batch D, 40° C./75% RH, 1 mo
  Dissolved at 30 min (%): 100%
[2]; Batch C tablets, closed 1 g desiccant, 25° C./60% RH, 6 months
  Dissolved at 30 min (%): 99%
[2]; Batch C tablets, closed 1 g desiccant, 30° C./75% RH, 3 months
  Dissolved at 30 min (%): 99%
[2]; Batch C tablets, closed 1 g desiccant, 40° C./75% RH, 3 months
  Dissolved at 30 min (%): 100%
[2]; Batch C tablets, closed 1 g desiccant, 40° C./75% RH, 6 months
  Dissolved at 30 min (%): 99%
[2]; Lot A tablets (super-potent VEL SSD, super-potent VOX SSD), Initial, time 0
  Dissolved at 30 min (%): 100%
[2]; Lot A tablets (super-potent VEL SSD, super-potent VOX SSD), closed, 1 g desiccant, 25° C./60% RH, 12 weeks
  Dissolved at 30 min (%): 99%
[2]; Lot A tablets (super-potent VEL SSD, super-potent VOX SSD), closed, 1 g desiccant, 40° C./75% RH, 12 weeks
  Dissolved at 30 min (%): 100%
[2]; Lot B tablets (sub-potent VEL SSD, sub-potent VOX SSD), Initial, time 0
  Dissolved at 30 min (%): 83%
[2]; Lot B tablets (sub-potent VEL SSD, sub-potent VOX SSD), closed, 1 g desiccant, 25° C./60% RH, 12 weeks
  Dissolved at 30 min (%): 82%
[2]; Lot B tablets (sub-potent VEL SSD, sub-potent VOX SSD), closed, 1 g desiccant, 40° C./75% RH, 4 weeks
  Dissolved at 30 min (%): 85%
[2]; Lot B tablets (sub-potent VEL SSD, sub-potent VOX SSD), closed, 1 g desiccant, 40° C./75% RH, 12 weeks
  Dissolved at 30 min (%): 84%
[2]; Lot B tablets (sub-potent VEL SSD, sub-potent VOX SSD), open, no cap, 40° C./75% RH, 4 weeks
  Dissolved at 30 min (%): 100%
[2]; Lot C tablets (sub-potent VEL SSD, super-potent VOX SSD), Initial, time 0
  Dissolved at 30 min (%): 99%
[2]; Lot C tablets (sub-potent VEL SSD, super-potent VOX SSD), closed, 1 g desiccant, 25° C./60% RH, 12 weeks
  Dissolved at 30 min (%): 98%
[2]; Lot C tablets (sub-potent VEL SSD, super-potent VOX SSD), closed, 1 g desiccant, 40° C./75% RH, 4 weeks
  Dissolved at 30 min (%): 100%
[2]; Lot C tablets (sub-potent VEL SSD, super-potent VOX SSD), closed, 1 g desiccant, 40° C./75% RH, 12 weeks
  Dissolved at 30 min (%): 98%
[2]; Lot C tablets (sub-potent VEL SSD, super-potent VOX SSD), open, no cap, 40° C./75% RH, 4 weeks
  Dissolved at 30 min (%): 99%
[2]; Lot D tablets (super-potent VEL SSD, sub-potent VOX SSD), closed, 1 g desiccant, 25° C./60% RH, 12 weeks
  Dissolved at 30 min (%): 98%
[2]; Lot D tablets (super-potent VEL SSD, sub-potent VOX SSD), closed, 1 g desiccant, 40° C./75% RH, 4 weeks
  Dissolved at 30 min (%): 98%
[2]; Lot D tablets (super-potent VEL SSD, sub-potent VOX SSD), closed, 1 g desiccant, 40° C./75% RH, 12 weeks
  Dissolved at 30 min (%): 98%
[2]; Lot D tablets (super-potent VEL SSD, sub-potent VOX SSD), open, no cap, 40° C./75% RH, 4 weeks
  Dissolved at 30 min (%): 99%
[2]; SSD potency tablets Lot B, after 4 weeks open at 40° C./75% RH
  dissolution at 30 minutes: 100%
[2]; tablet Lots A and B made with different sofosbuvir particle size distributions
  released at 30 minutes: 101%
[2]; tablets Batch A, 25° C./60% RH, 3 mo
  Dissolved at 30 min (%): 98%
[2]; tablets Batch A, 25° C./60% RH, 6 mo
  Dissolved at 30 min (%): 98%
[2]; tablets Batch A, 30° C./75% RH, 3 mo
  Dissolved at 30 min (%): 98%
[2]; tablets Batch A, 40° C./75% RH, 1 mo
  Dissolved at 30 min (%): 98%
[2]; tablets Batch A, 40° C./75% RH, 6 mo
  Dissolved at 30 min (%): 100%
[2]; tablets Batch B, 25° C./60% RH, 3 mo
  Dissolved at 30 min (%): 99%
[2]; tablets Batch B, 25° C./60% RH, 6 mo
  Dissolved at 30 min (%): 99%
[2]; tablets Batch B, 30° C./75% RH, 3 mo
  Dissolved at 30 min (%): 99%
[2]; tablets Batch B, 30° C./75% RH, 6 mo
  Dissolved at 30 min (%): 99%
[2]; tablets Batch B, 40° C./75% RH, 1 mo
  Dissolved at 30 min (%): 100%
[2]; tablets Batch B, 40° C./75% RH, 3 mo
  Dissolved at 30 min (%): 100%
[2]; tablets Batch B, Initial, 0 mo
  Dissolved at 30 min (%): 99%
[2]; tablets Batch D, Initial, 0 mo
  Dissolved at 30 min (%): 100%
[2]; tablets from VEL SSD 7.0% / VOX SSD 3.2% water content, Initial, time 0
  Dissolved at 30 min (%): 100%
[2]; tablets from VEL SSD 7.0% / VOX SSD 3.2% water content, closed, 1 g desiccant, 25° C./60% RH, 12 weeks
  Dissolved at 30 min (%): 98%
[2]; tablets from VEL SSD 7.0% / VOX SSD 3.2% water content, closed, 1 g desiccant, 40° C./75% RH, 12 weeks
  Dissolved at 30 min (%): 99%
[2]; tablets from VEL SSD 7.0% / VOX SSD 3.2% water content, open, no desiccant, 40° C./75% RH, 4 weeks
  Dissolved at 30 min (%): 100%
[2]; tablets from copovidone with 544 ppm (VEL SSD) / 655 ppm (VOX SSD) peroxides, Initial, time 0
  Dissolved at 30 min (%): 99%
[2]; tablets from copovidone with 544 ppm (VEL SSD) / 655 ppm (VOX SSD) peroxides, closed, 1 g desiccant, 25° C./60% RH, 12 weeks
  Dissolved at 30 min (%): 99%
[2]; tablets from copovidone with 544 ppm (VEL SSD) / 655 ppm (VOX SSD) peroxides, closed, 1 g desiccant, 40° C./75% RH, 4 weeks
  Dissolved at 30 min (%): 99%
[2]; tablets from copovidone with 544 ppm (VEL SSD) / 655 ppm (VOX SSD) peroxides, closed, 1 g desiccant, 40° C./75% RH, 12 weeks
  Dissolved at 30 min (%): 99%
[2]; tablets from copovidone with 544 ppm (VEL SSD) / 655 ppm (VOX SSD) peroxides, open, no desiccant, 40° C./75% RH, 4 weeks
  Dissolved at 30 min (%): 100%
[2]; tablets, desiccant study, closed, 1 g desiccant, 40° C./75% RH, 4 weeks
  Dissolved at 30 min (%): 99%
[2]; tablets, desiccant study, closed, 1 g desiccant, 40° C./75% RH, 12 weeks
  Dissolved at 30 min (%): 99%
[2]; tablets, desiccant study, closed, 1 g desiccant, 40° C./75% RH, 24 weeks
  Dissolved at 30 min (%): 100%
[2]; tablets, desiccant study, closed, no desiccant, 25° C./60% RH, 12 weeks
  Dissolved at 30 min (%): 99%
[2]; tablets, desiccant study, closed, no desiccant, 40° C./75% RH, 12 weeks
  Dissolved at 30 min (%): 99%
[3]; tablets film-coated to weight gains of 2.1 to 5.4%, ICH Q1B
  level of degradation products: 0.0%
[3]; film-coating 0% weight gain, Exposed to Light
  Total Imp./Deg. Products (%): 0.0%
[3]; film-coating 0% weight gain, Protected from Light
  Total Imp./Deg. Products (%): 0.0%
[3]; film-coating 2.1% weight gain, Exposed to Light
  Total Imp./Deg. Products (%): 0.0%
[3]; film-coating 2.1% weight gain, Protected from Light
  Total Imp./Deg. Products (%): 0.0%
[3]; film-coating 3.4% weight gain, Exposed to Light
  Total Imp./Deg. Products (%): 0.0%
[3]; film-coating 3.4% weight gain, Protected from Light
  Total Imp./Deg. Products (%): 0.0%
[3]; film-coating 4.1% weight gain, Exposed to Light
  Total Imp./Deg. Products (%): 0.0%
[3]; film-coating 4.1% weight gain, Protected from Light
  Total Imp./Deg. Products (%): 0.0%
[3]; film-coating 5.4% weight gain, Exposed to Light
  Total Imp./Deg. Products (%): 0.0%
[3]; film-coating 5.4% weight gain, Protected from Light
  Total Imp./Deg. Products (%): 0.0%
HCV RNA
  fraction of the maximal HCV RNA change from baseline achievable (Emax model) associated with mean major metabolite AUCtau: approximately 77%
